Laboratory results published in US20020128185A1, “Pharmaceutical compounds” (priority 1998, published 2002).
pIC50: −log10 of the molar value. Entries after “also recorded” stand apart in the source; their conditions may differ. Values belong to the compound of their own block, whether it stands above or below them.

Tests used:
[1] = tested on: A-10 rat aortic smooth muscle cells; assay: Immunofluorescence assays of the cytoskeleton in A-10 cells; type: cell-based; details: for Microtubule repolymerization after removal of drug: 100 nM for 24 hr
Method: A-10 cells are grown to near-confluency on glass coverslips in BME/10% FBS. Compounds in PBS are added to the indicated final concentrations and cells are incubated for an additional 24 hours. For the staining of microtubules and intermediate filaments, the cells are fixed with cold methanol and incubated with PBS containing 10% calf serum to block nonspecific binding sites. Cells are then incubated at 37° C for 60 min. with either monoclonal anti-S-tubulin or with monoclonal anti-vimentin at dilutions recommended by the manufacturer. Bound primary antibodies are subsequently visualized by a 45-minute incubation with fluorescein-conjugated rabbit antimouse IgG. The coverslips are mounted on microscope slides and the fluorescence patterns are examined and photographed using a Zeiss Photomicroscope Ill equipped with epifluorescence optics for fluorescein. […] PBS containing 100 nM TRITC-phalloidin is then added and the mixture is allowed to incubate for 45 min. at 37° C. The cells are washed rapidly with PBS before the coverslips are mounted and immediately photographed as described above.
After 24 hours, microtubules and vimentin intermediate filaments are visualized by indirect immunofluorescence and microfilaments are stained using TRITC-phalloidin. The morphological effects of each drug is examined.
After 24 hours, microtubule organization is examined by immunofluorescence as described above.
The cells are then washed and incubated in drug-free medium for periods of 1 hour or 24 hours. […] Cells are visualized for microtubule state after treatment with a cryptophycin compound of this invention at either 1 hour or 24 hours after removal of the cryptophycin compounds.

[2] = tested on: SKVLB1 cells (vinblastine-resistant, P-glycoprotein-overexpressing sub-line of SKOV3); assay: Inhibition of growth of SKVLB1 cells; type: cell-based; details: Homo sapiens
Method: The Jurkat T cell leukemia line and A-10 rat aortic smooth muscle cells are obtained from the American Type Culture Collection and are cultured in BME containing 10% FBS and 50 μg/mL gentamycin sulfate. […] Both cell lines are maintained in BME containing 10% FBS and 50 μg/mL gentamycin sulfate.
Cell proliferation assays are performed as described by Skehan et al. For Jurkat cells, cultures are treated with the indicated drugs as described in Skehan and total cell numbers are determined by counting the cells in a hemacytometer. The percentage of cells in mitosis are determined by staining with 0.4% Giemsa in PBS followed by rapid washes with PBS. At least 1000 cells per treatment are scored for the presence of mitotic figures and the mitotic index is calculated as the ration of the cells with mitotic figures to the total number of cells counted.
SKVLB1 cells are resistant to natural product anticancer drugs because of their over expression of P-glycoprotein.

melting point: 258 to 260 °C
SMILES: COc1ccc(C[C@H]2NC(=O)/C=C/C[C@@H]([C@H](C)/C=C/c3ccccc3)OC(=O)[C@H](CC(C)C)NC(=O)CC(CC(C)C)NC2=O)cc1Cl (stereo partly shown)

SMILES: C=C1[C@@H](C)[C@H]2[C@H](Cc3ccccc3)NC(=O)[C@]23OC(=O)/C=C/[C@H](O)CCC[C@@H](C)C/C=C/[C@H]3[C@@H]1O [Cytochalasin B, cytochalasin B]
Effect on distribution of microtubules and intermediate filaments ([1]; 2 μM cytochalasin B, 24 hours): did not affect the distribution of either microtubules or intermediate filaments
Effect on microfilaments ([1]; 2 μM cytochalasin B, 24 hours, TRITC-phalloidin staining): complete depolymerization of microfilaments

pIC50 [2]: 5.10
SMILES: CC(=O)O[C@H]1C(=O)[C@@]2(C)[C@H]([C@H](OC(=O)c3ccccc3)[C@]3(O)C[C@H](OC(=O)[C@H](O)[C@@H](NC(=O)c4ccccc4)c4ccccc4)C(C)=C1C3(C)C)[C@]1(OC(C)=O)CO[C@@H]1C[C@@H]2O [Taxol, taxol]
Microtubule organization in taxol-treated cells ([1]; 10 μM taxol, compared with control cells): extensively bundled
Effect of taxol pretreatment on vinblastine-induced microtubule depolymerization ([1]; 3 hours 10 μM taxol before 100 nM vinblastine, 24 hours): prevented microtubule depolymerization in response to vinblastine

pIC50 [2]: 5.38
SMILES: CC[C@]1(O)C[C@@H]2CN(CCc3c([nH]c4ccccc34)[C@@](C(=O)OC)(c3cc4c(cc3OC)N(C)[C@H]3[C@@](O)(C(=O)OC)[C@H](OC(C)=O)[C@]5(CC)C=CCN6CC[C@]43[C@@H]65)C2)C1 [Vinblastine, vinblastine]
Microtubule repolymerization after removal of drug ([1]; then 1 hour in drug-free medium): significant levels of microtubules after 1 hour
Microtubule repolymerization after removal of drug ([1]; then 24 hours in drug-free medium): complete morphological recovery by 24 hour
Effect on microtubules ([1]; 100 nM vinblastine, 24 hours, not pretreated): complete depolymerization of microtubules; also recorded: complete microtubule depolymerization
